Experimental data from patent US10039807B2, “bFGF-polymer conjugates, methods for making the same and applications thereof” (THE REGENTS OF THE UNIVERSITY OF CALIFORNIA, priority 2011, dated 2018).

What was measured:
[1] = test system: Human Dermal Fibroblast (HDF) cells; experiment: Bioactivity study: HDF proliferation, CellTiter-Blue assay, untreated samples; assay type: cell-based; settings: no stress, samples stored at −80° C. before use; 1 ng/ml bFGF or bFGF in conjugate; 72 hours; normalized to blank
Protocol: (§1) Preparation of untreated and treated samples is detailed in the Methods section. The concentrations of bFGF and bFGF in the conjugates under treatment were 0.05 ng/μL. The concentration of heparin under treatment was 0.075 ng/μl or 0.05 μg/μl, while the concentrations of the unconjugated polymers were 0.075 ng/μl. The final concentrations of bFGF and bFGF conjugates in the medium were 1 ng/ml. Incubation of HDF with each of the samples was carried out for 72 hours. CellTiter® blue assay was performed to quantify percent cell growth. Data was normalized to the blank sample (no bFGF added) in that same treatment group. Each sample was done with six repeats, and the whole experiment was repeated eight times including one blinded study, except (+)bFGF(+)1.5 ng/ml pPEGMA and (+)bFGF-pPEGMA were repeated four times. Error bars are SEM. Statistical analysis was done using two-way ANOVA and Student's T-test. * denotes p<0.05, ** denotes p<0.01 and *** denotes p<0.001 between the sample indicated and the (+) bFGF (−) heparin within that same stress set.
HDF cells were trypsinized and resuspended in UltraCULTURE™ serum-free medium supplemented with 2 mM L-Glutamine and 100 u/ml penicillin and 100 μg/ml streptomycin. The cells were plated at a concentration of 2000 cells/well in a 96-well plate and allowed to adhere over 16 hours at 37° C., 5% CO2. […] Then, the medium in the wells was replaced with 100 μl of each sample. After an incubation for 72 hours at 37° C., 5% CO2, CellTiter-Blue® assay was carried out to evaluate cell proliferation. […] Each group was done with six replicates, and the whole experiment was repeated four times, one of which was a blinded study.
HDFs were used as the in vitro model to evaluate the bioactivity of the bFGF-heparin mimicking polymer conjugate before and after exposure to various stresses.

[2] = test system: Human Dermal Fibroblast (HDF) cells; experiment: Stability study of bFGF and bFGF conjugates under treatments, read out as HDF proliferation; assay type: cell-based; settings: for percent cell growth after trypsin treatment: 0.1% w/v trypsin for 16 hours at 4° C.; for bioactivity after mildly acidic conditions: pH 4.7 for 16 hours at 4° C.; for percent cell growth after storage: storage at 4° C. for 16 hours
Protocol: as §1
To study the stability of bFGF and bFGF conjugates under various treatments (storage, acidic conditions, protease degradation, and heat), the protein and the conjugates were diluted in medium after these treatments and tested for their bioactivity in promoting HDF proliferation.
The control blank group contained 15 μl of D-PBS. The 15 μl/experimental group was split into 4 vials of 3 μl/vial for four separate treatments. In one set of the 3 μl-vials, 27 μl of D-PBS was added to each vial and the samples were stored at 4° C. for 16 hours. In another set of 3 μl-vials, 27 μl of pH 4.7 PBS was added to each vial and the samples were stored at 4° C. for 16 hours. In the third set of 3 μl-vials, 27 μl of 0.1% Trypsin was added to each vial and the samples were stored at 4° C. for 16 hours. The fourth set of 3 μl-vials were stored at 4° C. for 16 hours before 27 μl of 1% TFA was added and treated for 2 hours at 4° C. The samples under no treatment and under heat treatment were prepared fresh in the same way towards the end of the 16 hour-treatment of other samples. The samples under heat treatment were placed in dry bath at 55° C. for 30 minutes. […] Then, the medium samples were used for cell proliferation assay as described above. After an incubation for 72 hours at 37° C., 5% CO2, CellTiter-Blue® assay was carried out to evaluate cell proliferation. […] Each group was done with six replicates, and the whole experiment was repeated four times, one of which was a blinded study. A two-way ANOVA and student's T-test were done for statistical analysis.
The chosen treatments represent environmental stresses that the growth factor (or any heparin-binding protein) could be exposed to. For example, storage in the unfrozen form and exposure to heat during delivery, transport, or use were represented by the “Storage at 4° C. for 16 hours” treatment and “Heat at 55° C. for 30 minutes” treatment, respectively. Incubation at “pH 4.7 for 16 hours” is relevant because mildly acidic conditions are necessary to inhibit bacterial growth during wound treatment.
Furthermore, the stability of the bFGF-heparin mimicking conjugate was challenged against proteolytic degradation and extreme acidic conditions by incubating with 0.1% w/v trypsin for 16 hours and 1% trifluoroacetic acid (TFA) for 2 hours, respectively. The starting concentrations of bFGF and bFGF in the conjugates were equivalent and the concentrations of the unconjugated polymers and heparin were the same at approximately stoichiometric ratios to bFGF. The positive control group contained a large excess (700 molar) of heparin to bFGF. The negative control was native bFGF alone.

[3] = test system: Human Dermal Fibroblast (HDF) cells; experiment: Bioactivity after 4-week storage at 4° C., HDF proliferation; assay type: cell-based; settings: 4 weeks of storage at 4° C., then 1 ng/ml on HDF for 72 hours
Protocol: FIG. 4B depicts exemplary bioactivity study of bFGF-heparin mimicking (bFGF-pSS-co-PEGMA) conjugate in promoting HDF proliferation compared to other control groups before and after the treatments. Preparation of untreated and treated samples is detailed in the Methods section. The concentrations of bFGF and bFGF in the conjugates under treatment were 0.05 ng/μL. The concentration of heparin under treatment was 0.075 ng/μl or 0.05 μg/μl, while the concentrations of the unconjugated polymers were 0.075 ng/μl. The final concentrations of bFGF and bFGF conjugates in the medium were 1 ng/ml. Bioactivity study of bFGF-heparin mimicking polymer, bFGF-pSS-co-PEGMA conjugate, after 4-week storage at 4° C. Data was normalized to the blank sample (contained medium only). Each group was done with six replicates.
Bioactivity study of bFGF-pSS-co-PEGMA conjugate after long-time storage was also tested. After 4 weeks of storage 4° C.
In these experiments, an amount of 30 μl of each experimental group in D-PBS was made up to contain 0.05 ng/μ1 of bFGF or bFGF-pSS-co-PEGMA conjugate. The positive control group was prepared to contain 0.05 ng/μl of bFGF and 0.05 μg/μl of heparin. The samples were then stored at 4° C. for 4 weeks. […]

[4] = test system: Human Dermal Fibroblast (HDF) cells; assay type: cell-based; settings: 1 ng/ml bFGF or conjugate, 72 hours, with 125 nM PD173074
Protocol: FIG. 6 depicts the exemplary results of an inhibition assay. The medium samples were prepared with and without 125 nM of PD173074. 2,000HDF cells/well was incubated with each of the sample for 72 hours at 37° C., 5% CO2. Each sample group was done with six replicates, and the whole experiment was repeated three times.
To confirm that the bFGF-heparin mimicking conjugate promoted cell growth by the same transduction pathway as by native bFGF, a potent inhibitor for FGF receptor 1 (FGFR1) was included in the media. PD173074 (N-[2-[[4-(diethylamino)butyl]amino]-6-(3, 5-dimethoxyphenyl)pyrido[2, 3-d]pyrimidin-7-yl]-N′-(1, 1-dimethylethyl)-urea) competes with adenosine-5′-triphosphate (ATP) for binding to the receptors, a key step for FGFR phosphorylation, and shuts down the signal transduction pathways associated with cell proliferation.
HDF cells were trypsinized and resuspended in UltraCULTURE™ serum-free medium supplemented with 2 mM L-Glutamine and 100 u/ml penicillin and 100 μg/ml streptomycin. […] On the next day, the experimental groups were prepared to contain 1 ng/ml of bFGF, or 1 ng/ml of bFGF with 1 μg/ml of heparin, or 1 ng/ml of bFGF-pSS-co-PEGMA; all with an addition of 125 nM of the inhibitor PD173074. The control groups were the replicates but without the addition of the inhibitor. Then, the medium in the wells was replaced with 100 μl of each sample. […]

BaF3 cells (FR1C-11) = experiment: Proliferation study of BaF3 cells expressing FGFR1 and lacking heparan sulfate proteoglycans; assay type: cell-based; settings: 42 hours, medium lacking IL-3, normalized to blank; for percent cell growth, bFGF or conjugate alone: 1 ng/ml, without heparin
Protocol: BaF3 cells (FR1C-11), which express FGFR1 but lack heparin sulfate proteoglycans, were seeded at a density of 20,000 cells/well in cultured medium lacking IL-3 in a 96-well-plate. […] The cells were incubated for 42 hours. CellTiter® blue assay was performed to quantify percent cell growth. Data was normalized to blank sample group. Each group was done with six replicates. Error bars are standard deviations.
Heparin (as cell surface receptors called heparan sulfate proteoglycans) is also known to increase the mitogenic activity of bFGF by increasing binding to the bFGF receptors (FGFRs). In addition, heparin promotes bFGFR dimerization by providing the “glue” between two bFGFs and two FGFRs (see crystal structure, FIGS. 12B and 12C). In fact, this heparin assisted, ligand-induced dimerization of bFGFRs is required for activity. […] In some embodiments, the new heparin mimicking polymer can induce the dimerization and uptake the FGFRs.
While bFGF interacts directly with cells by binding to FGFRs, signal transduction cannot occur without the simultaneous interaction with heparan sulfate proteoglycan (HS) cell surface receptors. […] BaF3 cells are engineered to express FGFR1 and lack cell-surface HS; addition of soluble heparin is required to activate the cells with bFGF.

[5] = test system: Human Dermal Fibroblast (HDF) cells; settings: 1 ng/ml to 1 mg/ml for 24 hours in the absence of bFGF
Protocol: 5,000 HDF cells/well was incubated with various concentrations of each polymer for 24 hours at 37° C., 5% CO2. Then, each well was washed twice with D-PBS and subsequently incubated with 1 μM Calcein AM 4 μM Ethidium homodimer-1 in D-PBS for 20 minutes at 37° C., 5% CO2. Percentage of live cells was calculated by dividing the number of live cells by the total number of live and dead cells. Each experimental group was done with four replicates, and the whole experiment was repeated four times, one of which was a blinded study. Error bars are SEMs.
HDF cells were trypsinized and resuspended in fibroblast growth medium lacking bFGF. The cells were plated at a concentration of 5000 cells/well in a 48-well plate and allowed to adhere over 16 hours at 37° C., 5% CO2. Then, the medium in the wells was replaced with 200 μl of the working medium containing various amount of polymer/heparin. After an incubation of 24 hours at 37° C., 5% CO2, cell viability was assessed using LIVE/DEAD® viability/cytotoxicity assay. Briefly, the cells were washed twice with pre-warmed D-PBS, then incubated with 200 μl of 1 μM Calcein AM and 4 μM Ethidium homodimer-1 in D-PBS for 20 minutes at 37° C., 5% CO2. […] The numbers of live and dead cells were counted manually using NIH Image J software, and percent live cells was calculated by dividing the number of live cells by the total number of live and dead cells. […]

[6] = then 1 ng/ml on HDF for 72 hours

| Substance | percent cell growth [1] [%] | percent cell growth after trypsin treatment [2, 6] | percent cell growth after TFA treatment ([2]; 1% trifluoroacetic acid (TFA) for 2 hours, then 1 ng/ml on HDF for 72 hours) [%] | percent cell growth after heat treatment ([2]; heat at 55° C. for 30 minutes, then 1 ng/ml on HDF for 72 hours) [%] | bioactivity after mildly acidic conditions [2, 6] | percent cell growth after storage [2, 6] | stability to the treatments (overall) ([2]; storage, pH 4.7, trypsin, 1% TFA, heat, read out as HDF proliferation) | activity after long-time storage [3] | percent cell growth in the presence of PD173074 [4] [%] | percent cell growth, bFGF or conjugate alone (BaF3 cells (FR1C-11)) | percent cell growth, bFGF or conjugate alone (BaF3 cells (FR1C-11); listed as bFGF-pSS-co-pPEGMA) [%] | percent cell growth, additive given with bFGF (BaF3 cells (FR1C-11); 1 μg/ml of additive with 1 ng/ml of bFGF) [%] | percent cell viability [5] |
| --- | --- | --- | --- | --- | --- | --- | --- | --- | --- | --- | --- | --- | --- |
| bFGF-pSS-co-PEGMA: bFGF covalently conjugated via a reversible disulfide bond to one heparin mimicking polymer pSS-co-PEGMA (mono-conjugate) | 213±13 | 176±11% | 162±17 | 167±12 | statistically the same as before treatment | 210±10% | stable | completely retained | 85±11 | did not induce cell growth | 147±14 |  |  |
| bFGF-poly(ethylene glycol) methyl ether methacrylate) [bFGF-pPEGMA, reference compound] | 190±6 | some stability |  |  | some stability | some stability |  |  |  |  |  |  |  |
| bFGF: Basic fibroblast growth factor, a 16-kDa polypeptide, also called fibroblast growth factor 2 | 192±9 |  |  |  |  |  |  |  | 88±5 | 127±12% |  |  |  |
| heparin [reference compound] |  |  |  |  |  |  |  |  |  |  |  | 384±35 | the same as no polymer added |
